Measurements as given in US20230312646A1, “ANTIBACTERIAL PEPTIDES” (priority 2020, published 2023).
Read-outs that look alike come from different tables or passages of the source. Square brackets hold non-standard residues; d marks the D form. Peptide text beside a SMILES is read from it. * marks the point of attachment. ξ: configuration not given here. Acryloyl(3-(3-pyridyl),E) = O=C(/C=C/c1cccnc1)*; Phe(3,4-Cl2) = N[C@@H](Cc1ccc(Cl)c(Cl)c1)C(=O)O; Phe(3,4-F2) = N[C@@H](Cc1ccc(F)c(F)c1)C(=O)O; Oic = O=C(O)[C@@H]1C[C@@H]2CCCC[C@@H]2N1; Cinnamoyl(4-F) = O=C(/C=C/c1ccc(F)cc1)*; NMeR = CN[C@@H](CCCNC(=N)N)C(=O)O; dNMeR = CN[C@H](CCCNC(=N)N)C(=O)O; Tridecanoyl = CCCCCCCCCCCCC(=O)*; Cha = N[C@@H](CC1CCCCC1)C(=O)O; NMeD = CN[C@@H](CC(=O)O)C(=O)O; NMeDab = CN[C@@H](CCN)C(=O)O; ξOic = O=C(O)C1CC2CCCCC2N1; X6 = O=C(/C=C/c1ccccc1)*

How the values were obtained:
[1] = molecular target: T1, clamps from Pseudomonas aeruginosa (^PaSC) (Pseudomonas aeruginosa, UniProt Q9I7C4); test: ITC of peptides with P. aeruginosa clamp; assay type: binding
T1 construct: made in house
Method: (§1) ITC experiments were performed using an iTC200 or a PEAQ-ITC instrument (Microcal Malvern Panalytical). Peptides (300 or 600 µM) were titrated at 25° C. by sequential injections (usually 2 µl each) into an SC solution (30 or 60 µM). Data were corrected for heat of injection by subtracting the signal of the titration of peptides into proteiN-free buffer solution (Hepes 10 mM pH 7.4, NaCl 0.15 M, EDTA 3 mM). Each titration was performed at least twice. Analyses of experimental data were performed following a classical treatment with the AFFINImeter software (https://www.affinimeter.com; S4S, Santiago de Compostela, Spain). In addition, kinetic information was obtained in some cases with kinITC as implemented in the software AFFINImeter.
(§2) Protein quality was assessed by DLS. The purification of clamps from other bacteria used the same procedure.
(§3) The bacterial sliding clamps present a highly conserved binding site among bacterial species. […] All these species belong to the ESKAPE group and are in the first priority bacteria list established by the World Health Organization for which new antibiotics are urgently needed.

[2] = molecular target: T2, Escherichia coli SC (^EcSC) (Escherichia coli, UniProt P0A988); test: biochemical; assay type: binding; conditions: for kon: read-out: kon (M^-1 s^-1)
T2 construct: His tag (inferred from the pET15b vector and Ni-NTA purification) (N); made in house; host or cells: E. coli
Method: The procedure has been described previously (Wolff, P.; Oliéric, V.; Briand, J. P.; Chaloin, O.; Dejaegere, A.; Dumas, P.; Ennifar, E.; Guichard, G.; Wagner, J.; Burnouf, D. Y., Structure-Based Design of Short Peptide Ligands Binding onto the E. coli Processivity Ring. J. Med. Chem. 2011, 54 (13), 4627-4637). Briefly, E.coli cells were transformed with plasmids pET15b containing the dnaN gene from E. coli and were grown in LB at 37° C. to OD 0.5, then induced by IPTG (0.1 mM) at 28° C. overnight. dnaN proteins fractions were first enriched on a Ni-NTA column, eluted with a histidine step (300 mM) and further purified on a Source Q column in buffer containing 20 mM Tris HCI pH 7.5, 0.5 mM EDTA and 10% (v/v) glycerol, using a gradient from 0 to 0.5 M NaCl. After a final ultracentrifugation (45 K, 1 h, 20° C.), soluble proteins were concentrated on a Centricon 30 K (Millipore) in the same buffer and stored at 4° C. in 2 M ammonium sulfate. Buffer exchange was performed on Centrikon 10 K at 4° C. before use and protein quality was assessed by DLS.
as §1
All newly synthesized peptides were tested for their interaction with ^EcSC by ITC at 25° C. As a general rule, all thermodynamic profiles reveal an exothermic interaction, and a non-favorable entropic component. The resulting negative Gibb’s free energies characterize a spontaneous interaction. The analysis of raw data by the Affinimeter® software also gave access to kinetics rate constant of the interaction.

[3] = molecular target: clamps from Acinetobacter baumannii (^AbSC); test: ITC of peptides with A. baumannii clamp; assay type: binding; conditions: ITC at 25° C.; means of three independant experiments, standard deviations in brackets; read-out: affinities (Kd in nM), A. baumannii
Method: as §1, §2, §3

[4] = test system: Stpaphylococcus aureus HG001; assay type: cell-based, S. aureus
Method: (§4) Antimicrobial activity of peptide 5d was assessed through the measurement of the Minimal Inhibition Concentration (MIC). MIC assays were performed in duplicate in 96-well microtiter plates on the basis of the protocol recommended by the Clinical and Laboratory Standards Institute. Laboratory strains of Escherichia coli D22, Bacillus subtilis 168 and Stpaphylococcus aureus HG001were cultivated on either LB-agar plates or liquid 1x Mueller Hinton broth. Briefly, a mix of 3-4 fresh (less than 36 hours) colonies grown on LB-agar plates were inoculated in 3 ml of MH broth and incubated for about 4 h at 37° C. under agitation. Dilution of these cultures to an OD600 nm of 0.002 was made in MH broth. Within a time laps not exceeding 30 min, 50 µl of this cell suspension was added to 50 µl of MH broth (containing or not serial dilutions of the peptide 5 d in MH broth) in wells of a 96-well round bottom microwell plate (Greiner; final cell density of about 5 × 10^5 cfu/ml). Plates were incubated at 37° C. for 18-20 hours. MIC was defined as the minimal antibiotic concentration that results in no visible growth of the strain in the micotiter plate well.

Bacillus subtilis 168 = assay type: cell-based
Method: as §4

Escherichia coli D22 = test: MIC assay, E. coli; assay type: cell-based; conditions: MH broth, 37° C., 18-20 hours
Method: as §4

[5] = affinities (Kd in nM), P. aeruginosa, ITC at 25° C., means of three independant experiments, standard deviations in brackets
[6] = Kd (nM), ITC at 298.15 K (25° C.)
[7] = affinities (Kd in nM), E.coli, ITC at 25° C., means of three independant experiments, standard deviations in brackets

T2 sequence (P0A988 whole entry): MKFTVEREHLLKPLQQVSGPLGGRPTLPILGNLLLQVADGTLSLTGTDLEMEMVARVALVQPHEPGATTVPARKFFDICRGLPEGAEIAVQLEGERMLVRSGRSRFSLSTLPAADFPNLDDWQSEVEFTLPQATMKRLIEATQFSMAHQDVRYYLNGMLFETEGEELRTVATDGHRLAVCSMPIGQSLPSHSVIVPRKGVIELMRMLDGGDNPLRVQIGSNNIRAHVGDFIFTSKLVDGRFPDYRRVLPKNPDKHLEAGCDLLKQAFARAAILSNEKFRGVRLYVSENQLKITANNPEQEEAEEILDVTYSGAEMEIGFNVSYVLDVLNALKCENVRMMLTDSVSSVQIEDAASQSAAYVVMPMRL
T1 sequence (Q9I7C4 whole entry): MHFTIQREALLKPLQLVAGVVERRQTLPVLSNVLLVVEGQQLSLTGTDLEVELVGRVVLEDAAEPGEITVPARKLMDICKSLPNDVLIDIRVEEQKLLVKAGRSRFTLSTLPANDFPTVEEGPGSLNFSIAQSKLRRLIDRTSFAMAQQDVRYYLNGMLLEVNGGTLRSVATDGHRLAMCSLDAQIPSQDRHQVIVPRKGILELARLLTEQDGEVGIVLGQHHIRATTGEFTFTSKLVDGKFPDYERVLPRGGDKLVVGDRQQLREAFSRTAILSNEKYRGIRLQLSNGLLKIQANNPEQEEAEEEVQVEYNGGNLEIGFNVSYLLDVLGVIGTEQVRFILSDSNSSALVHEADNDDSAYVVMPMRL

SMILES	Kd [2, 6] [nM]	kon [2] [M⁻¹ s⁻¹]	ΔG (kcal mol^-1) ([2]; ITC at 25° C.)	further results
CC(=O)N[C@@H](CCC(N)=O)C(=O)N[C@@H](CC1CCCCC1)C(=O)N(C)[C@@H](CC(=O)O)C(=O)N[C@@H](CC(C)C)C(=O)N[C@@H](Cc1ccc(Cl)c(Cl)c1)C(=O)O [P35] (Ac-Q[Cha][NMeD]L[Phe(3,4-Cl2)]-OH)	41	270000		Kd [1, 5]: 140 nM
CC(=O)N(C)[C@@H](CCCNC(=N)N)C(=O)N[C@@H](CCC(N)=O)C(=O)N[C@@H](CC1CCCCC1)C(=O)N(C)[C@@H](CC(=O)O)C(=O)N[C@@H](CC(C)C)C(=O)N[C@@H](Cc1ccc(Cl)c(Cl)c1)C(=O)O [P37] (Ac-[NMeR]Q[Cha][NMeD]L[Phe(3,4-Cl2)]-OH)	92			Kd [1, 5]: 169 nM; Kd ([1]; affinity for these clamps (^PaSC and ^AbSC), range over ^PaSC and ^AbSC): 120 to 170 nM; Kd [2, 7]: 74 nM
CC(C)C[C@H](NC(=O)[C@H](CC(=O)O)N(C)C(=O)[C@H](CC1CCCCC1)NC(=O)[C@H](CCC(N)=O)NC(=O)/C=C/c1cccnc1)C(=O)N[C@@H](Cc1ccc(Cl)c(Cl)c1)C(=O)O [P38] ({Acryloyl(3-(3-pyridyl),E)}-Q[Cha][NMeD]L[Phe(3,4-Cl2)]-OH)	46	110000		Kd ([1]; ITC at 25° C., means of three independant experiments, standard deviations in brackets, read-out: affinities (Kd in nM), P. aeruginosa): 120 nM; Kd ([1]; range over ^PaSC and ^AbSC, read-out: affinity for these clamps (^PaSC and ^AbSC)): 120 to 170 nM; Kd [2, 7]: 45 nM
CC(=O)N[C@@H](CCC(N)=O)C(=O)N[C@@H](CC1CCCCC1)C(=O)N(C)[C@@H](CC(=O)O)C(=O)N[C@@H](CC(C)C)C(=O)N[C@@H](Cc1ccc(F)c(F)c1)C(=O)O [P40] (Ac-Q[Cha][NMeD]L[Phe(3,4-F2)]-OH)	148	56000	-9.3 (± 0.02) kcal mol^-1	
CC(C)C[C@H](NC(=O)[C@H](CC(=O)O)N(C)C(=O)[C@H](CC1CCCCC1)NC(=O)[C@H](CCC(N)=O)NC(=O)/C=C/c1ccc(F)cc1)C(=O)N[C@@H](Cc1ccc(F)c(F)c1)C(=O)O [P41] ({Cinnamoyl(4-F)}-Q[Cha][NMeD]L[Phe(3,4-F2)]-OH)	99	51000		
CC(=O)N[C@@H](CCC(N)=O)C(=O)N[C@@H](CC1CCCCC1)C(=O)N(C)[C@@H](CC(=O)O)C(=O)N[C@@H](CC(C)C)C(=O)N1CCC[C@H]1C(=O)N[C@@H](CC(C)C)C(=O)O [P42] (Ac-Q[Cha][NMeD]LPL-OH)	263	100000	-9.0 (± 0.2) kcal mol^-1	
CC(C)C[C@H](NC(=O)[C@@H]1CCCN1C(=O)[C@H](CC(C)C)NC(=O)[C@H](CC(=O)O)NC(=O)[C@H](CC1CCCCC1)NC(=O)[C@H](CCC(N)=O)NC(=O)/C=C/c1ccccc1)C(=O)O [P43] (X6-Q[Cha]DLPL-OH)	132	60000		
CC(C)C[C@H](NC(=O)[C@@H]1CCCN1C(=O)[C@H](CC(C)C)NC(=O)[C@H](CC(=O)O)N(C)C(=O)[C@H](CC1CCCCC1)NC(=O)[C@H](CCC(N)=O)NC(=O)/C=C/c1cccnc1)C(=O)O [P44] ({Acryloyl(3-(3-pyridyl),E)}-Q[Cha][NMeD]LPL-OH)	177	63000	-9.2 (± 0.1) kcal mol^-1	
CC(=O)N[C@@H](CCC(N)=O)C(=O)N[C@@H](CC1CCCCC1)C(=O)N(C)[C@@H](CC(=O)O)C(=O)N[C@@H](CC(C)C)C(=O)N1CCC[C@H]1C(=O)N[C@@H](Cc1ccccc1)C(=O)O [P45] (Ac-Q[Cha][NMeD]LPF-OH)	81	60000	-9.7 (± 0.2) kcal mol^-1	
CC(C)C[C@H](NC(=O)[C@H](CC(=O)O)N(C)C(=O)[C@H](CC1CCCCC1)NC(=O)[C@H](CCC(N)=O)NC(=O)/C=C/c1cccnc1)C(=O)N1CCC[C@H]1C(=O)N[C@@H](Cc1ccccc1)C(=O)O [P46] ({Acryloyl(3-(3-pyridyl),E)}-Q[Cha][NMeD]LPF-OH)	36	140000	-10.2 (± 0.1) kcal mol^-1	
CC(=O)N[C@@H](CCC(N)=O)C(=O)N[C@@H](CC1CCCCC1)C(=O)N[C@@H](CC(=O)O)C(=O)N[C@@H](CC(C)C)C(=O)N1C(C(=O)N[C@@H](CC(C)C)C(=O)O)CC2CCCCC21 (stereo partly drawn) [P47] (Ac-Q[Cha]DL[ξOic]L-OH)		71000		
CC(=O)N[C@@H](CCC(N)=O)C(=O)N[C@@H](CC1CCCCC1)C(=O)N[C@@H](CC(=O)O)C(=O)N[C@@H](CC(C)C)C(=O)N1[C@H](C(=O)N[C@@H](Cc2ccccc2)C(=O)O)C[C@@H]2CCCC[C@@H]21 [P48] (Ac-Q[Cha]DL[Oic]F-OH)	120	55000	-9.5 (± 0.3) kcal mol^-1	
CC(C)C[C@H](NC(=O)[C@H](CC(=O)O)N(C)C(=O)[C@H](CC1CCCCC1)NC(=O)[C@H](CCC(N)=O)NC(=O)/C=C/c1cccnc1)C(=O)N1[C@H](C(=O)N[C@@H](Cc2ccccc2)C(=O)O)C[C@@H]2CCCC[C@@H]21 [P49] ({Acryloyl(3-(3-pyridyl),E)}-Q[Cha][NMeD]L[Oic]F-OH)	118	47000	-9.5 (± 0.1) kcal mol^-1	
CC(=O)N[C@@H](CCC(N)=O)C(=O)N[C@@H](CC1CCCCC1)C(=O)N[C@@H](CC(=O)O)C(=O)N[C@@H](CC(C)C)C(=O)N1[C@H](C(=O)N[C@@H](Cc2ccc(Cl)c(Cl)c2)C(=O)O)C[C@@H]2CCCC[C@@H]21 [P50] (Ac-Q[Cha]DL[Oic][Phe(3,4-Cl2)]-OH)	39	60000	-10.1 (± 0.2) kcal mol^-1	Kd [3]: 70 nM; Kd [1, 5]: 20 nM; Kd [2, 7]: 39 nM
CCCCCCCCCCCCC(=O)N(C)[C@H](CCCNC(=N)N)C(=O)N[C@@H](CCC(N)=O)C(=O)N[C@@H](CC1CCCCC1)C(=O)N(C)[C@@H](CCNC(C)=O)C(=O)N[C@@H](CC(C)C)C(=O)N[C@@H](Cc1ccc(Cl)c(Cl)c1)C(N)=O [Peptide 5d] (Tridecanoyl-[dNMeR]Q[Cha][NMeDab](Ac)L[Phe(3,4-Cl2)]-NH2)				MIC [4]: 4 to 8 µM; MIC ([4]; MH broth, 37° C., 18-20 hours): 4.6 to 9.2 µg/mL; MIC (Bacillus subtilis 168; 168): 4 µM; MIC (Bacillus subtilis 168; MH broth, 37° C., 18-20 hours): 4.6 µg/mL; MIC (µg/ml) (Escherichia coli D22): 2.3 to 4.6 µg/mL; MIC µM (Escherichia coli D22): 2 to 4 µM
